Source: patent US20220281931A1, “CHEMICALLY INDUCIBLE POLYPEPTIDE POLYMERIZATION” (Dana-Farber Cancer Institute, Inc., priority 2019, published 2022)

Columns and labels:
[1] = target: T1, BCL6^5-360 (Homo sapiens, UniProt P41182); experiment: Negative stain electron microscopy of BCL6; type: biochemical; settings: BCL6^5-360, 2 μM or 20 μM BI-3802
T1 construct: size-exclusion chromatogram of purified BCL6^5-360 in the presence of DMSO; made in house; host or cells: Trichoplusia ni High Five insect cells, baculovirus
Protocol: The incubated protein samples were rapidly diluted to 10 μg/mL (sample treated with DMSO) or 50 μg/ml (samples treated with BI-3802). A 5 μL aliquot was applied to glow-discharged 400-mesh carbon-coated nickel grids (CF400-NI-UL, Electron Microscopy Sciences). After incubating for 1 min, protein was wicked off with a filter paper and the grid was washed twice with distilled water, followed by two rounds of staining with 2% uranyl acetate for 5 s and 20 s, respectively. Grids were imaged at a nominal magnification of 40,000× on a JEOL JEM-1400Plus operated at 80 kV.

[2] = target: T2, StrepBCL6^5-360 / full length SIAH1 (Homo sapiens, UniProt P41182); experiment: In vitro ubiquitination of BCL6 by SIAH1; type: biochemical; settings: recombinant polypeptides, 1 μM BI-3802 vs DMSO
T2 construct: using Strep II-Avi-BCL6^5-360 and Flag-SIAH1^FL; made in house; host or cells: Trichoplusia ni High Five insect cells, baculovirus
Protocol: In vitro ubiquitination for identification of compatible E2 conjugating enzymes was performed by following the manufacturer's instructions (K-982, Boston Biochem), using Strep II-Avi-BCL6^5-360 and Flag-SIAH1^FL. Time-course in vitro ubiquitination was performed by mixing the substrate (BCL6, 2 μM), E3 (SIAH, 0.5 μM), E1 (UBA1, Boston Biochem, 0.2 μM, E2 (UBE2D1, Boston Biochem, 0.5 μM), and ubiquitin (Boston Biochem, 50 μM), with a reaction buffer (B-71, Boston Biochem) containing BI-3802 or DMSO (normalized to 1% DMSO) in 15 μL volume each. Reactions were initiated by adding 5 μL of Mg-ATP solution (B-20, Boston Biochem), incubated for up to 60 min at 37° C., and analyzed by western blot using Strep tag II Antibody HRP conjugate (71591-3, Sigma) at 1:4,000. 0.8×10^6 cells/mL SuDHL4 cells were treated with DMSO or 0.5 μM E1 Inhibitor (3 h)+1 μM BI-3802 (I h) and 200 μL of the cell suspension was immobilized on a slide using the Cytospin™ 4 Cytocentrifuge (CytoSpin 4, A78300003; 6000 rpm, 6 min). Medium was aspirated and cells were fixed with 4% formaldehyde diluted in warm PBS for 15 min at room temperature. Slides were washed three times for 5 min with PBS, blocked and permeabilized with blocking solution (5% Normal Goat Serum (Cell Signaling), 0.3% Triton X-100 in PBS) for 60 min and stained with anti-BCL6 antibody in blocking solution overnight at 4° C. […]

## CNC(=O)COc1cc2cc(Nc3nc(N4C[C@H](C)C[C@H](C)C4)ncc3Cl)ccc2n(C)c1=O [BI-3802, 2-((6-((5-chloro-2-((3S,5R)-3,5-dimethylpiperidin-1-yl)pyrimidin-4-yl)amino)-1-methyl-2-oxo-1,2-dihydroquinolin-3-yl)oxy)-N-methylacetamide]
[1]
  higher-order BCL6 structures by negative stain EM: formation of regular structures with a sinusoidal shape was observed
[2]
  rate and magnitude of BCL6 ubiquitination by SIAH1: accelerated
